According to ChEMBL document CHEMBL4414624, “Terpenoids from the Stems of Fissistigma polyanthoides and Their Anti-Inflammatory Activity” (J Nat Prod, 2019):

Experiments:
[1] = Cytotoxicity against LPS-stimulated human THP1-Blue-CD14 cells assessed as reduction in cell viability after 24 hrs by CellTiter-Blue based fluorescence analysis
[2] = Cytotoxicity against human THP1-Blue-CD14 cells assessed as reduction in cell viability after 24 hrs by CellTiter-Blue based fluorescence analysis
[3] = (§1) Inhibition of LPS-induced NF-kappaB/AP-1 signalling cascade in human THP1-Blue-CD14 cells incubated for 24 hrs by quanti-blue SEAP assay; type: cell-based
[4] = organism: Homo sapiens; assay: as §1; type: cell-based

Row | Structure (SMILES) | IC50 [1] [µM] | IC50 [2] [µM] | IC50 [3] [µM] | inhibition [4]
1 | C[C@@H]1CC[C@H](C(C)(C)O[C@@H]2O[C@H](CO)[C@@H](O)[C@H](O)[C@H]2OC(=O)/C=C/c2ccccc2)CC2=C1CC[C@H]2C | 35.2 | 47.9 | 28.4 | Dose-dependent effect
2 | C=C1CC[C@@H](C(C)C)/C=C/[C@@](C)(O[C@@H]2O[C@H](CO)[C@@H](O)[C@H](O)[C@H]2OC(=O)/C=C/c2ccccc2)CCC1=O | 154 |  | 49 | Dose-dependent effect
3 | CC(C)C1=CC[C@]2(C)[C@@H](O)CC[C@@](C)(O[C@@H]3O[C@H](CO)[C@@H](O)[C@H](O)[C@H]3OC(=O)/C=C/c3ccccc3)[C@H]2C1 | 29.5 | 39.1 | 20.8 | Dose-dependent effect
4 | CC(C)[C@@H]1CC[C@@H](C)[C@@]23CC[C@](C)(O[C@@H]4O[C@H](CO)[C@@H](O)[C@H](O)[C@H]4OC(=O)/C=C/c4ccccc4)[C@@H]2[C@@H]13 | 21.6 | 29.2 | 13.7 | Dose-dependent effect
5 | CC(C)[C@H]1CC/C2=C/C(=O)CC[C@](C)(O[C@@H]3O[C@H](CO)[C@@H](O)[C@H](O)[C@H]3OC(=O)/C=C/c3ccccc3)C[C@@H]21 | 46.4 | 133 | 30.7 | Dose-dependent effect
